Legend:
Assay in all cases: relative viability (nuclei count vs DMSO), 5 days (fraction); higher = more cells survive
Adavosertib + Foretinib = compound: C=CCn1c(=O)c2cnc(Nc3ccc(N4CCN(C)CC4)cc3)nc2n1-c1cccc(C(C)(C)O)n1 [Adavosertib] + COc1cc2c(Oc3ccc(NC(=O)C4(C(=O)Nc5ccc(F)cc5)CC4)cc3F)ccnc2cc1OCCCN1CCOCC1 [Foretinib] (partner 0.25 µM)
Procedure, shortened: (§1)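 Lung cancer cell lines in 1536-well plates got either a single drug or a fixed anchor-drug dose together with five library-drug doses (not always all listed) in √10 steps, by pin tool, on the day after seeding. Nuclei were counted after 5 days, and relative viability is the treated-to-vehicle ratio of nuclei counts. Values are medians of duplicate plates.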

Nelarabine + Tozasertib = compound: COc1nc(N)nc2c1ncn2[C@@H]1O[C@H](CO)[C@@H](O)[C@@H]1O [Nelarabine] + Cc1cc(Nc2cc(N3CCN(C)CC3)nc(Sc3ccc(NC(=O)C4CC4)cc3)n2)n[nH]1 [Tozasertib] (partner 0.1 µM)
Procedure, shortened: as §1

Nelarabine + Olaparib = compound: COc1nc(N)nc2c1ncn2[C@@H]1O[C@H](CO)[C@@H](O)[C@@H]1O [Nelarabine] + O=C(c1cc(Cc2n[nH]c(=O)c3ccccc23)ccc1F)N1CCN(C(=O)C2CC2)CC1 [Olaparib] (partner 8 µM)
Procedure, shortened: as §1

Adavosertib + Pictilisib = compound: C=CCn1c(=O)c2cnc(Nc3ccc(N4CCN(C)CC4)cc3)nc2n1-c1cccc(C(C)(C)O)n1 [Adavosertib] + CS(=O)(=O)N1CCN(Cc2cc3nc(-c4cccc5[nH]ncc45)nc(N4CCOCC4)c3s2)CC1 [Pictilisib] (partner 1 µM)
Procedure, shortened: as §1

Cell Line	relative viability (Adavosertib + Foretinib; first compound 0.03162 µM)	relative viability (Adavosertib + Foretinib; first compound 0.1 µM)	relative viability (Adavosertib + Foretinib; first compound 0.3162 µM)	relative viability (Nelarabine + Tozasertib; first compound 0.01 µM)	relative viability (Nelarabine + Tozasertib; first compound 0.03162 µM)	relative viability (Nelarabine + Tozasertib; first compound 0.1 µM)	relative viability (Nelarabine + Tozasertib; first compound 0.3162 µM)	relative viability (Nelarabine + Tozasertib; first compound 1 µM)	relative viability (Nelarabine + Olaparib; first compound 0.01 µM)	relative viability (Nelarabine + Olaparib; first compound 0.03162 µM)	relative viability (Nelarabine + Olaparib; first compound 0.1 µM)	relative viability (Nelarabine + Olaparib; first compound 0.3162 µM)	relative viability (Nelarabine + Olaparib; first compound 1 µM)	relative viability (Adavosertib + Foretinib; first compound 0.01 µM)	relative viability (Adavosertib + Pictilisib; first compound 0.01 µM)	relative viability (Adavosertib + Pictilisib; first compound 0.03162 µM)	relative viability (Adavosertib + Pictilisib; first compound 0.1 µM)	relative viability (Adavosertib + Pictilisib; first compound 0.3162 µM)
SW 900	0.727	0.853	0.907	0.617	0.476	0.635	0.611	0.532	0.843	0.752	0.96	0.949	0.797	–	–	–	–	–
PC-3 [JPC-3]	1.04	1.04	1.04	1.02	0.747	0.934	0.891	0.899	1.46	1.2	1.1	1.25	1.22	0.957	0.719	0.775	0.725	0.865
EKVX	1.15	0.755	0.748	0.463	0.476	0.449	0.372	0.395	1.11	0.852	0.817	0.775	0.866	0.743	0.44	0.448	0.433	0.437
NCI-H322M	0.978	0.821	0.517	0.554	0.485	0.407	0.501	0.456	0.79	0.75	0.701	0.827	0.836	0.886	–	0.521	0.504	0.421
NCI-H2087	1.11	1.37	1.06	0.303	0.24	0.22	0.19	0.245	0.713	0.421	0.73	0.68	0.72	1.22	0.86	0.947	0.833	0.923
NCI-H2405	1.06	1.1	1.13	0.805	0.682	0.663	0.73	0.67	0.948	0.834	0.83	0.899	0.896	1.05	0.466	0.412	0.437	0.373
NCI-H1915	1.03	1.2	1.14	0.576	0.417	0.633	0.475	0.459	0.25	0.264	0.261	0.251	0.24	1.14	0.97	1	1.05	0.985
HCC-44	–	–	–	1.27	1.25	1	1.11	0.867	1.07	0.972	0.948	0.975	0.986	–	0.518	0.647	0.526	0.62
EBC-1	0.101	0.115	0.0875	–	–	–	–	–	0.89	0.911	0.707	0.676	0.737	0.111	0.387	0.429	0.382	0.286
NCI-H1563	0.949	1.05	0.931	–	–	–	–	–	–	–	–	–	–	0.882	0.631	0.62	0.609	0.625
IA-LM	1.18	1.43	1.37	–	–	–	–	–	0.932	0.811	0.877	0.825	0.789	0.945	0.363	0.404	0.418	0.365
NCI-H1299	1.11	1.1	0.437	–	–	–	–	–	1	0.999	0.989	1.02	1.03	1.08	0.982	0.66	0.541	0.123
NCI-H1703	0.43	0.335	0.203	–	–	–	–	–	0.547	0.293	0.295	0.557	0.524	0.399	0.297	0.227	0.179	0.127
Calu-6	0.956	0.91	0.311	–	–	–	–	–	0.67	0.65	0.698	0.575	0.594	0.905	0.922	0.875	0.788	0.333
NCI-H522	–	–	–	0.529	0.605	0.456	0.615	0.627	0.619	0.738	0.651	0.592	0.639	–	–	–	–	–
NCI-H1623	0.863	0.854	0.933	0.46	0.341	0.601	0.45	0.406	–	–	–	–	–	0.863	–	–	–	–
NCI-H1792	–	–	–	–	–	–	–	–	0.52	0.42	0.581	0.566	0.436	–	0.294	0.224	0.233	0.272
NCI-H2342	1.18	1.19	1.04	0.532	0.513	0.446	0.478	0.462	0.442	0.432	0.443	0.395	0.442	1.14	–	–	–	–
A549	0.984	1.24	0.838	–	–	–	–	–	0.379	0.363	0.401	0.452	0.377	1.04	0.505	0.513	0.554	0.382

From the supplement of paper PMC10307832
